Among the data in ChEMBL document CHEMBL1909046, “DrugMatrix in vitro pharmacology data” are IC50 and Ki values, retold here.

The first data set deals with Receptor tyrosine-protein kinase erbB-2 (Homo sapiens, UniProt P04626). Description: biochemical. In kind it is cell-based, Insect cells. The note with it: insect cells.
Chain of Receptor tyrosine-protein kinase erbB-2 (P04626 whole entry): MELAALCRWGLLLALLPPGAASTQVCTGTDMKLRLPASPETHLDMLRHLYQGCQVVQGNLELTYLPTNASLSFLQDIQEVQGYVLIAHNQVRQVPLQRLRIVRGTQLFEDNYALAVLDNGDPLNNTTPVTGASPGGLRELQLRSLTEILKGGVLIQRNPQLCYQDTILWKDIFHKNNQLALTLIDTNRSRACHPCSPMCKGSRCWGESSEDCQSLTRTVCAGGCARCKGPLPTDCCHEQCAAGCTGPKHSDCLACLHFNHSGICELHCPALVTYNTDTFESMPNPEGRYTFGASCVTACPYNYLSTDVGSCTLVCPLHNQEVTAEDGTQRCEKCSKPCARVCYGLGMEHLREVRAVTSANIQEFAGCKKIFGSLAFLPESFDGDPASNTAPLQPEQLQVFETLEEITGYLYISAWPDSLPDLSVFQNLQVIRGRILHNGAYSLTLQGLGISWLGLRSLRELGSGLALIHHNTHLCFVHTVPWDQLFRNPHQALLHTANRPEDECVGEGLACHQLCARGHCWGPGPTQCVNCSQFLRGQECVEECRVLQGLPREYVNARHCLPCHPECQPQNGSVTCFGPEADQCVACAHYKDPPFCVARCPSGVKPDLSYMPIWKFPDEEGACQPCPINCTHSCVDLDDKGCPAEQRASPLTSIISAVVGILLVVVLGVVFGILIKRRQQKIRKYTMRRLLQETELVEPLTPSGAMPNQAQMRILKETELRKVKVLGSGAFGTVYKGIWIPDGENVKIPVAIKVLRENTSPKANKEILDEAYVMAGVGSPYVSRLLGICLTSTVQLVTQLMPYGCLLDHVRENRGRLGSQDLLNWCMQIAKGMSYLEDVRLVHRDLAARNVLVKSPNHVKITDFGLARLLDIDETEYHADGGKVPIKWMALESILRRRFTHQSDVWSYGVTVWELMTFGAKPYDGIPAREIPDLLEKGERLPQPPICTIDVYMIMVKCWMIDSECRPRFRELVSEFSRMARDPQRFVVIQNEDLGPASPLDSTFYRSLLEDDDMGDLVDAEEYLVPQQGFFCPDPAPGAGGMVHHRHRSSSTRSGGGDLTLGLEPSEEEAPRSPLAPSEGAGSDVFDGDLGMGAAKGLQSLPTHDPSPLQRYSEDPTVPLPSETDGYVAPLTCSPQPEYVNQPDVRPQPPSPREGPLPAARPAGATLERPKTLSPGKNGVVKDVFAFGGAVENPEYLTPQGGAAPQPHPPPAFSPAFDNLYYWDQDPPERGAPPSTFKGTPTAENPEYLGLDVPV
Consider `COc1cccc2c1C(=O)c1c(O)c3c(c(O)c1C2=O)C[C@@](O)(C(=O)CO)C[C@@H]3O[C@H]1C[C@H](N)[C@@H](O)[C@H](C)O1` [EPIRUBICIN], for which the IC50 entry was “Not Active”.

On to `CC1(C)O[C@@H]2C[C@H]3[C@@H]4C[C@H](F)C5=CC(=O)C=C[C@]5(C)[C@H]4[C@@H](O)C[C@]3(C)[C@]2(C(=O)CO)O1` [FLUNISOLIDE], for which the IC50 entry is recorded as “Not Active”.

The target in another data set is Insulin receptor (Rattus norvegicus, UniProt P15127). Note: in other assays of this panel Not Active means under 50% inhibition at 10 µM.
Chain of Insulin receptor (P15127 27-759 limits assumed): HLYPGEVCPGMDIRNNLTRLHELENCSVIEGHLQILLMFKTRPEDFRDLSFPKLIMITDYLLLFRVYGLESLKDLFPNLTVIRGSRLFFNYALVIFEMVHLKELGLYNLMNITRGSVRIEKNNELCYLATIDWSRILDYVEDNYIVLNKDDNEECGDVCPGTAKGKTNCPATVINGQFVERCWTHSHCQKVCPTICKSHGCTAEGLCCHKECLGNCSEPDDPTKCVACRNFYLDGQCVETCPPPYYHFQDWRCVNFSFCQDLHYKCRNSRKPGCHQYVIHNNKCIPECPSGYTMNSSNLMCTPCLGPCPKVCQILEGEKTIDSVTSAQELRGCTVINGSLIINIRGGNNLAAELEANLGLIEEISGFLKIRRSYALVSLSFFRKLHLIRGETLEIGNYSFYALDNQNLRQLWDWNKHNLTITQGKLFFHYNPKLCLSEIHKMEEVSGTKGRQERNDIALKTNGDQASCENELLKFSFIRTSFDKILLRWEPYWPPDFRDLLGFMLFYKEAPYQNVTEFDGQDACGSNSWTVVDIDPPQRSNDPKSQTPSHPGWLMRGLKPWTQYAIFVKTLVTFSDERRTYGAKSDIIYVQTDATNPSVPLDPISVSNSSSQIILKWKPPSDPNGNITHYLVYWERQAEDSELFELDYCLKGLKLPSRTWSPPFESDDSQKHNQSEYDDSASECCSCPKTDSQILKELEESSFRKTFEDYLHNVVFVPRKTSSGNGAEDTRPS
Chain of Insulin receptor (P15127 764-1383 limits assumed): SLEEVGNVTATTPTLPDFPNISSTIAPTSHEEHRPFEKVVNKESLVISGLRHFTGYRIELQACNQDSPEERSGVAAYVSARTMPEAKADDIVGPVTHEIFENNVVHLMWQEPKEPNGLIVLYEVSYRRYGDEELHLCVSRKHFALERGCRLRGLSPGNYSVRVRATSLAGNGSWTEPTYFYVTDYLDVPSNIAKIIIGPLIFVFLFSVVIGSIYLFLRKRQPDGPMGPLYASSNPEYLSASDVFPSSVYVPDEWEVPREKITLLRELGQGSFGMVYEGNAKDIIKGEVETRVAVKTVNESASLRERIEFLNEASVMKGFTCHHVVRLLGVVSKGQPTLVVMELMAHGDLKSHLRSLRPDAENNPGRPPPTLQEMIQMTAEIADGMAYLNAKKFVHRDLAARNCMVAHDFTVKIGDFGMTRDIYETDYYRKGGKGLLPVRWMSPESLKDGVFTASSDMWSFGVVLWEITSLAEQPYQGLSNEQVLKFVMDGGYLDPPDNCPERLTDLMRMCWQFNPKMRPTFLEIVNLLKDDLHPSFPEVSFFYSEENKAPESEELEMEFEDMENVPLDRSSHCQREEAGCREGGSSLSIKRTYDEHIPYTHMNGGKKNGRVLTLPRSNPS
Test: not given
In kind it is cell membranes, Wistar, Liver, Membrane.
Conditions: not given
`COc1cccc2c1C(=O)c1c(O)c3c(c(O)c1C2=O)C[C@@](O)(C(=O)CO)C[C@@H]3O[C@H]1C[C@H](N)[C@@H](O)[C@H](C)O1` [EPIRUBICIN]: the IC50 result is “Not Active”.

Consider `CC1(C)O[C@@H]2C[C@H]3[C@@H]4C[C@H](F)C5=CC(=O)C=C[C@]5(C)[C@H]4[C@@H](O)C[C@]3(C)[C@]2(C(=O)CO)O1` [FLUNISOLIDE], for which the IC50 entry is given as “Not Active”.

The target in the next data set is T1, C-X-C chemokine receptor type 2 (Homo sapiens, UniProt P25025). Note: in other assays of this panel Not Active means under 50% inhibition at 10 µM.
T1 sequence (P25025 whole entry): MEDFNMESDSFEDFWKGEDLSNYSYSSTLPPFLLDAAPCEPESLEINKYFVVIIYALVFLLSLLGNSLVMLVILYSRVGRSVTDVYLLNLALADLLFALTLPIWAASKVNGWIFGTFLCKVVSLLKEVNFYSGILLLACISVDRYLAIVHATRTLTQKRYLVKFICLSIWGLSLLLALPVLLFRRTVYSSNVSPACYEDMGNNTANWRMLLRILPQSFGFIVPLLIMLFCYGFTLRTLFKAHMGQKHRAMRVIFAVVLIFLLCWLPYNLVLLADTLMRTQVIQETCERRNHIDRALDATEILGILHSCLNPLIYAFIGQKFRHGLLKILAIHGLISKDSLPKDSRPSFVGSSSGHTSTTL
Test: not given
In kind it is cell membranes, Membrane. To be noted: cho-k1.
On to `COc1cccc2c1C(=O)c1c(O)c3c(c(O)c1C2=O)C[C@@](O)(C(=O)CO)C[C@@H]3O[C@H]1C[C@H](N)[C@@H](O)[C@H](C)O1` [EPIRUBICIN], for which the IC50 entry is given as “Not Active”.

Turning to `CC1(C)O[C@@H]2C[C@H]3[C@@H]4C[C@H](F)C5=CC(=O)C=C[C@]5(C)[C@H]4[C@@H](O)C[C@]3(C)[C@]2(C(=O)CO)O1` [FLUNISOLIDE], the IC50 entry is “Not Active”.

Test system in another data set: not listed separately
Description: DRUGMATRIX: Phosphodiesterase PDE3 enzyme inhibition (substrate: [3H]cAMP + cAMP). To be noted: platelet; Not Active = under 50% inhibition at 10 µM. In kind it is tissue-based, Homo sapiens.
As for `COc1cccc2c1C(=O)c1c(O)c3c(c(O)c1C2=O)C[C@@](O)(C(=O)CO)C[C@@H]3O[C@H]1C[C@H](N)[C@@H](O)[C@H](C)O1` [EPIRUBICIN], the IC50 entry is listed as “Not Active” and the Ki entry is “Not Active”.

Regarding `CC1(C)O[C@@H]2C[C@H]3[C@@H]4C[C@H](F)C5=CC(=O)C=C[C@]5(C)[C@H]4[C@@H](O)C[C@]3(C)[C@]2(C(=O)CO)O1` [FLUNISOLIDE], the IC50 entry is “Not Active” and the Ki entry was “Not Active”.

The next data set deals with T2, Estrogen receptor (Homo sapiens, UniProt P03372).
T2 sequence (P03372 whole entry): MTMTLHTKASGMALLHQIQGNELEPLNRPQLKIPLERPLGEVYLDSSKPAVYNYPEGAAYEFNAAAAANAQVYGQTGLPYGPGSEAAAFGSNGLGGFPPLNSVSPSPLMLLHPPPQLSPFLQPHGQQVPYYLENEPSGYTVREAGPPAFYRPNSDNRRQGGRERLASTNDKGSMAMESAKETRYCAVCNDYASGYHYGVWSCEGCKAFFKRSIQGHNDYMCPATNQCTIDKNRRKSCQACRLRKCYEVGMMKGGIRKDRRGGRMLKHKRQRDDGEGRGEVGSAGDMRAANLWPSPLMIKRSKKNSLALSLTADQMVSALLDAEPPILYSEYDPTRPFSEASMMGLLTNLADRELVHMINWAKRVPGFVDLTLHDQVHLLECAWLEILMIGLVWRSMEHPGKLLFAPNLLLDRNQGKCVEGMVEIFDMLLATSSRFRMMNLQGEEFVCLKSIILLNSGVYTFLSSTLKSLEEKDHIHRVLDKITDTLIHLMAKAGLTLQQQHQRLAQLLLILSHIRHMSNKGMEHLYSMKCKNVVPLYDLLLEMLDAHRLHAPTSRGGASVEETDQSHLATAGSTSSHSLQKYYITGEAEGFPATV
Test: not given
To be noted: sf9.
With `COc1cccc2c1C(=O)c1c(O)c3c(c(O)c1C2=O)C[C@@](O)(C(=O)CO)C[C@@H]3O[C@H]1C[C@H](N)[C@@H](O)[C@H](C)O1` [EPIRUBICIN], the IC50 result is reported as “Not Active”.

With `CC1(C)O[C@@H]2C[C@H]3[C@@H]4C[C@H](F)C5=CC(=O)C=C[C@]5(C)[C@H]4[C@@H](O)C[C@]3(C)[C@]2(C(=O)CO)O1` [FLUNISOLIDE], the IC50 entry was “Not Active”.

Another data set deals with Melanocortin receptor 4 (Homo sapiens, UniProt P32245).
Chain of Melanocortin receptor 4 (P32245 whole entry): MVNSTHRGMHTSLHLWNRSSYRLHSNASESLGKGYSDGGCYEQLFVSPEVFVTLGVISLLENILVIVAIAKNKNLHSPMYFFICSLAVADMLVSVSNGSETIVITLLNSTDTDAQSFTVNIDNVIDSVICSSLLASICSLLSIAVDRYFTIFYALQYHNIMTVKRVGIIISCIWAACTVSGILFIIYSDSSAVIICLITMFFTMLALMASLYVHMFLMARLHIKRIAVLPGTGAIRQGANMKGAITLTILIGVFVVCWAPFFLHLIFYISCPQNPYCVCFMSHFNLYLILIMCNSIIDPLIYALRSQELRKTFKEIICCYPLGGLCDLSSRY
Test: not given
In kind it is cell membranes, Membrane. The note with it: hek293.
Take `COc1cccc2c1C(=O)c1c(O)c3c(c(O)c1C2=O)C[C@@](O)(C(=O)CO)C[C@@H]3O[C@H]1C[C@H](N)[C@@H](O)[C@H](C)O1` [EPIRUBICIN]: the IC50 result is on record as “Not Active”.

In the case of `CC1(C)O[C@@H]2C[C@H]3[C@@H]4C[C@H](F)C5=CC(=O)C=C[C@]5(C)[C@H]4[C@@H](O)C[C@]3(C)[C@]2(C(=O)CO)O1` [FLUNISOLIDE], the IC50 entry is given as “Not Active”.

Test system in the next data set: not listed separately
The data set is described as follows: DRUGMATRIX: GABAA, Chloride Channel, TBOB radioligand binding (ligand: [3H] TBOB). In kind it is cell membranes, Rattus norvegicus, Wistar, Cerebral cortex, Membrane. The note with it: Not Active = under 50% inhibition at 10 µM.
Consider `COc1cccc2c1C(=O)c1c(O)c3c(c(O)c1C2=O)C[C@@](O)(C(=O)CO)C[C@@H]3O[C@H]1C[C@H](N)[C@@H](O)[C@H](C)O1` [EPIRUBICIN], for which the IC50 entry was “Not Active” and the Ki entry is recorded as “Not Active”.

On to `CC1(C)O[C@@H]2C[C@H]3[C@@H]4C[C@H](F)C5=CC(=O)C=C[C@]5(C)[C@H]4[C@@H](O)C[C@]3(C)[C@]2(C(=O)CO)O1` [FLUNISOLIDE], for which the IC50 result is recorded as “Not Active” and the Ki entry is on record as “Not Active”.

The target of another data set is Cytochrome P450 2E1 (Homo sapiens, UniProt P05181). Note: in other assays of this panel Not Active means under 50% inhibition at 10 µM.
Chain of Cytochrome P450 2E1 (P05181 whole entry): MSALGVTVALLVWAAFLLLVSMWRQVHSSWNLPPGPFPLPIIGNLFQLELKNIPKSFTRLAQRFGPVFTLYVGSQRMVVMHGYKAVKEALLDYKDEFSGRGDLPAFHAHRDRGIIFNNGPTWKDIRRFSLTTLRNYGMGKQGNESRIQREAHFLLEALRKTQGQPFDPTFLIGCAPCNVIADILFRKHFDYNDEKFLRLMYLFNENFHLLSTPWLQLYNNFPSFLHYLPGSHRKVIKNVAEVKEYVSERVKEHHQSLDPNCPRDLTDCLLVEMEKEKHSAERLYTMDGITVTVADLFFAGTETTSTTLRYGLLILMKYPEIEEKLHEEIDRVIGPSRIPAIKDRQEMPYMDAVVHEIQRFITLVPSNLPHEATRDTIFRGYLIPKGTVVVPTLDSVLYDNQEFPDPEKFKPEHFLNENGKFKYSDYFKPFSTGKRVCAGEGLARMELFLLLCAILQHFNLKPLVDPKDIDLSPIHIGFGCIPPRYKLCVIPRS
Test: not given
The note with it: bti-tn-5b1-4.
Regarding `COc1cccc2c1C(=O)c1c(O)c3c(c(O)c1C2=O)C[C@@](O)(C(=O)CO)C[C@@H]3O[C@H]1C[C@H](N)[C@@H](O)[C@H](C)O1` [EPIRUBICIN], the IC50 entry is on record as “Not Active” and the Ki result is “Not Active”.

In the case of `CC1(C)O[C@@H]2C[C@H]3[C@@H]4C[C@H](F)C5=CC(=O)C=C[C@]5(C)[C@H]4[C@@H](O)C[C@]3(C)[C@]2(C(=O)CO)O1` [FLUNISOLIDE], the IC50 result is “Not Active” and the Ki entry was “Not Active”.

The target in the next data set is T3, Receptor-type tyrosine-protein phosphatase C (Homo sapiens, UniProt P08575).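 Note: inhibition of CD45 enzyme activity measured using DiFMUP as substrate; in other assays of this panel Not Active means under 50% inhibition at 10 µM.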
T3 sequence (P08575 whole entry): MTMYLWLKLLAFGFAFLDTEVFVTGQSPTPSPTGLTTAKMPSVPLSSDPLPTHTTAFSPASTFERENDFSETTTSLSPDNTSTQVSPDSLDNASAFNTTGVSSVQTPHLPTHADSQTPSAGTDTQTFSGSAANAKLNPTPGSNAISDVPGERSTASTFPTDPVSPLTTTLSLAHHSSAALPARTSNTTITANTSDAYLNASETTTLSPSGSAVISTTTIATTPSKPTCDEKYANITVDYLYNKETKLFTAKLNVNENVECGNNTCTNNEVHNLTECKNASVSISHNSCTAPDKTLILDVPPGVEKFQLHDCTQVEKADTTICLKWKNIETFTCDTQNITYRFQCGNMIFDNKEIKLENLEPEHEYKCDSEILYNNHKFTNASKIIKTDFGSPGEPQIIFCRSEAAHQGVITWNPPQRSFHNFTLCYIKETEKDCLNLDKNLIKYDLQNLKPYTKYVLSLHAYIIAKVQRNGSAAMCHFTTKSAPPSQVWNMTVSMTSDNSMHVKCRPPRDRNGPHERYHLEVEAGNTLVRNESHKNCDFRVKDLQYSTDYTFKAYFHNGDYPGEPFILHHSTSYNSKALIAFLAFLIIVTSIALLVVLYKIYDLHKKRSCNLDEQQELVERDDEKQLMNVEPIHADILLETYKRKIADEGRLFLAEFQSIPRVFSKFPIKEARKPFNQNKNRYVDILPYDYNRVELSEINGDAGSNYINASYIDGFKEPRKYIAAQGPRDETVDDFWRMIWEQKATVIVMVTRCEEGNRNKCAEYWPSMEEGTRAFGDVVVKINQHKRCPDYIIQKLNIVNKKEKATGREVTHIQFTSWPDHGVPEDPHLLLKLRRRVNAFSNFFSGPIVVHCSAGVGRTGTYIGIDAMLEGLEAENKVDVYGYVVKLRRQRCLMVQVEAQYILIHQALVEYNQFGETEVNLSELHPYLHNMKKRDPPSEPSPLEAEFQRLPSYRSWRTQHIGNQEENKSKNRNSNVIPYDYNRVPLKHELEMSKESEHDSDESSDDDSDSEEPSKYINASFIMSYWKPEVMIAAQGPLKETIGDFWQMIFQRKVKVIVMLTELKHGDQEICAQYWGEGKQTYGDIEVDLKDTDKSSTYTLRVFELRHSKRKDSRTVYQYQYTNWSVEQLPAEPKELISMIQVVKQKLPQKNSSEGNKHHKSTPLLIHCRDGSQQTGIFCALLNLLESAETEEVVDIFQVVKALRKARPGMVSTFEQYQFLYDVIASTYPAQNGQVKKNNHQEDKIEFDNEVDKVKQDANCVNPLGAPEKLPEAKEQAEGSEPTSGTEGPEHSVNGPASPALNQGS
Test: not given
More on the design: species or system Escherichia coli.
Conditions: not given
Take `COc1cccc2c1C(=O)c1c(O)c3c(c(O)c1C2=O)C[C@@](O)(C(=O)CO)C[C@@H]3O[C@H]1C[C@H](N)[C@@H](O)[C@H](C)O1` [EPIRUBICIN]: the IC50 entry is “Not Active”.

As to `CC1(C)O[C@@H]2C[C@H]3[C@@H]4C[C@H](F)C5=CC(=O)C=C[C@]5(C)[C@H]4[C@@H](O)C[C@]3(C)[C@]2(C(=O)CO)O1` [FLUNISOLIDE], the IC50 entry is “Not Active”.
